Measurements reported in patent publication US20250161245A1, “A MIXTURE OF UREA, BIURET AND N-CONTAINING BY-PRODUCTS CREATED DURING BIURET PRODUCTION AS A DIETARY NON-PROTEIN NITROGEN-SOURCE FOR RUMINANTS AND USES THEREOF” (Yara International ASA, priority 2022, published 2025).

System: rumen microbiota
Assay: Gas Production Test, in vitro rumen fermentation model (Example 1)
Format: cell-based
Conditions: for cumulative gas production after 72 hours (comparison): isonitrogenous, 72 hours in vitro incubation, against blank and other NPN sources; for lag period of cumulative gas production: buffered rumen fluid, 39° C.; for part still unused by the rumen microbes after 24 hours: based on the cumulative gas production profiles
Procedure: The in vitro model used to simulate rumen digestion and utilization of the products is the Gas Production Test protocol, adapted for protein digestibility, as described in more detail in the following paragraph.
Approximately 1 liter of rumen fluid was collected from two different rumen-fistulated animals in the morning. Rumen fluid was strained through a cheesecloth, kept at 39° C. under CO2 and then diluted 1:19 with a nitrogen-free buffer and mineral solution containing 10.03 g NaHCO3, 1.43 g Na2HPO4, 1.55 g KH2PO4, 0.15 g MgSO4·7H2O, 0.52 g Na2S, 0.017 g CaCl2·2H2O, 0.015 g MnCl2·4H2O, 0.002 g […], 0.012 g FeCl3·6H2O and 0.125 mg resazurin per liter.
To ensure the rumen fluid was depleted of free nitrogen and to ensure nitrogen would be the limiting factor for the microbial growth at the start of the experiment, the buffered rumen fluid was pre-incubated for 4 hours at 39° C. with a carbohydrate overload of glucose, xylose and soluble starch, each at 3.33 g/l. During this pre-incubation, all nitrogen available in the rumen fluid would be incorporated into bacterial protein and other bacterial nitrogen-containing components.
Each product was weighed into different glass bottles on an isonitrogenous base, providing 15 mg N per flask. Then, 60 ml of the pre-incubated buffered rumen fluid was added, under continuous flushing with CO2. Flasks were closed with rubber stoppers and placed in a shaking water bath with 50 movements per minute at 39° C. to start the incubation period. The gas production of each flask was recorded continuously for 72 hours using a fully automated system. All test products including a blank (i.e. no product added to the flask of rumen fluid) were tested in one run in triplicate.
The cumulative gas production was measured continuously for 72 hours.

[1] = 15 mg N per flask, 72 hours incubation

| SMILES | cumulative gas production after 72 hours (comparison) | time after which gas production stopped / maximum cumulative gas production (end level) was reached [1] [h] | lag period of cumulative gas production [1] | part still unused by the rumen microbes after 24 hours | time of highest (peak) gas production [1] [h] | gas production rate from 20 to 50 hours (20 to 50 hours of incubation) |
| --- | --- | --- | --- | --- | --- | --- |
| O=c1[nH]c(=O)[nH]c(=O)[nH]1 [cyanuric acid, Cyanuric acid] | not significantly different | – | – | – | – | – |
| Nc1nc(=O)[nH]c(=O)[nH]1 [ammelide, Ammelide] | not significantly different | – | – | – | – | – |
| NC(=O)NC(N)=O [Biuret] | – | 40 | approximately 5 hours | approximately 60% | – | – |
| NC(=O)NC(=O)NC(N)=O [Triuret] | – | 60 | 9 h | approximately 60% | 20 | approximately 4 ml/hour |
